Reference: US8778971B2, “Medicinal treatment of dermal diseases in companion animals” (Bridge Pharma, Inc., priority 2012, dated 2014)
Marks after values point to notes of the source that are not given here.

Key:
mice = test: Sedative effects in mice, physostigmine lethality test; conditions: for Sedated animals: mice
Procedure: In short, physostigmine (1.0 mg/kg to 2.0 mg/kg, s.c.) generally results in 100% lethality when given to groups of mice (10 mice/group) transferred into a small volume of space. Mice administered a sedating drug prior to the physostigmine injection are protected from the stress and survive. In the present study, test compounds were given orally 60 minutes prior to physostigmine injection. The number of surviving (sedated) mice was counted 30 minutes after injection of the physostigmine dose.

[1] = test system: histamine-induced wheal response; test: Antihistaminic activity in vivo, intradermal histamine wheal; set-up: species or system rats; conditions: rat; for Histamine wheal area: 60 min before histamine; for Saline wheal area: histamine vehicle injection; for Histamine effect: histamine minus saline
Procedure: Male rats (150-200 g) were fasted overnight and twelve hours after dorsal depilation, the animals were orally pretreated with the test compound(s). Four dorsal test areas were marked with permanent ink, carefully avoiding the area closest to the spine. […] Two intradermal injections of the vehicle for the histamine solution were also performed. […] Twenty minutes were allowed for the wheal response to fully develop, whereupon the animals were euthanized and the dorsal skin with the intradermal wheals were deflected. The blue spotted areas were measured in square millimeters and the duplicate wheal areas were averaged. […] The inhibition was calculated in percent difference from said baseline values.

croton oil-treated ears [2] = test: Croton oil ear inflammation, systemic (ip) administration; type: in vivo; conditions: mice, 10 mg/kg ip
Procedure: In order to investigate the effects of systemic administration of the test compounds in dermal inflammation, a croton oil model was used as is known in the art. This test consists of topical application of 20 μl of 1.0% croton oil to each ear of male mice, weighing 28-32 g. […] Application of the croton oil results in an inflammatory response. The weight of croton oil-treated ears was determined and the percent increase in ear weight is calculated. Test articles were dosed systemically (ip). […] All results represent mean ear weights (±S.E.M.) from 10 ears.

rats = test: Acute toxicity, Up-and-Down Procedure; type: in vivo; conditions: RAT, hydrogen fumarate salts
Procedure: Acute toxicological studies were performed in rats (Sprague-Dawley; M and F; 200-250 grams). The animal-sparing Up-and-Down Procedure (FDA, OECD) was used. Both oral and intravenous toxicity tests were performed.
Both compounds were administered as hydrogen fumarate salts.

dogs = test: Sedative effects in dogs, cross-over oral dosing; type: in vivo; conditions: for Frequency of sedation: 20 mg/kg/day oral; for Sedation in dogs (in words): oral
Procedure: Sedation studies in dogs were performed according to a cross-over protocol, where the dogs were administered once daily the test articles orally at a dose of 20 mg/kg bodyweight that in a previous toxicology study was marginally toxic in dogs with equal plasma concentrations of R-norketotifen and S-norketotifen.
The test articles were administered in gelatin capsules and vehicle-capsules were empty. All dogs were healthy beagles (four males and two females), age 24-36 months, weighing 7.8-10.6 kg. The dogs were dosed at 9-10 AM and had been fasted overnight before dosing. There was a washout period of at least three days in all dogs between the tests. All assessments of sedation/sleepiness were made by a qualified (D.V.M.) scientist with extensive experience (>15 years) in studies with conscious laboratory dogs. The test articles were in the form of hydrogen fumarate salts.
It had previously been observed that dogs rarely express sedation in response to oral administration of benzocycloheptathiophene compounds on the first day of dosing and the dogs were therefore administered the test articles for three consecutive days.

[3] = test system: human leukocytes (buffy coat); test: Inhibition of A23187-stimulated histamine release from leukocytes; type: cell-based; conditions: for IC50: Homo sapiens, Leukocyte, 20 min, A23187 5 μM, 20 min/37° C., read-out: Inhibition of inflammatory mediator (histamine) release
Procedure: In these studies, histamine was the marker compound for inflammatory mediators that are released from mast cells and other pro-inflammatory cells in patients with atopic inflammatory diseases. The inhibition of stimulated histamine release from human leukocytes (buffy coat) by test articles was studied. Leukocytes were obtained from healthy volunteers and histamine release was induced by incubation (20 min/37° C.) with the calcium ionophore A23187 (5 μM) in the presence or absence of a test article. Histamine was analyzed by enzyme-immune assays, using commercially available kits and a microplate reader (MRX, Dynatech). The test articles were evaluated, in duplicate, at five concentrations.

[4] = test system: histamine-induced pruritus; test: Histamine-induced pruritus, topical cream; type: in vivo; conditions: mice, 1.0% cream topical 60 min before histamine
Procedure: Antipruritic effects were tested in vivo in CD-1 female mice aged 10-12 weeks, according to methods known in the art. The hair was clipped over the rostral part of the back at the interscapular level of the mice one day before dosing. Before testing, the mice were placed in individual clear plastic cages for at least one hour for acclimation. […] Lanolin was weighed and liquified by submerging the vessel containing lanolin in hot water. While the lanolin was liquid, it was rapidly nixed (by vortexing) with the 2.5% norketotifen solution in ethanol, resulting in a 1.0% solution. […] A cream containing 60% lanolin/40% ethanol served as control.

histamine H1-receptors = histamine H1-receptors (Homo sapiens, UniProt P35367); test: H1 receptor binding, [3H]pyrilamine ligand; conditions: human recombinant receptors, read-out: H-1/IC50
Chain of histamine H1-receptors (P35367 whole entry): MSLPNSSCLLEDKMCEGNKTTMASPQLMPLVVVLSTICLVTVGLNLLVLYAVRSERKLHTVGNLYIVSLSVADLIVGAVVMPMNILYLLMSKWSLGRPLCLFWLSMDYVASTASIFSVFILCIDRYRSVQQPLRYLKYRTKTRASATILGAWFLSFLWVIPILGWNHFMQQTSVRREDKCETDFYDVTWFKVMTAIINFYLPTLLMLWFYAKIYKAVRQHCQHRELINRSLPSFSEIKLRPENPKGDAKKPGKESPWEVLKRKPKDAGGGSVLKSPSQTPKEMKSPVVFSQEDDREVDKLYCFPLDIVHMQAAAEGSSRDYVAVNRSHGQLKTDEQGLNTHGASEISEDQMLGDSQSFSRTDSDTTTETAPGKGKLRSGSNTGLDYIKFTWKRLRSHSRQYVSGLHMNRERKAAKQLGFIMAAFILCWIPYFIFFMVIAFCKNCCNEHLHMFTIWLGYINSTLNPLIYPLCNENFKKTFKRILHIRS
Procedure: H1 receptor binding studies were conducted utilizing human recombinant receptors. In the studies shown herein, affinities of the test compounds for histamine H1-receptors were assessed using a binding assay, where [^3H]pyrilamine was used as the ligand and the test compounds were used at increasing concentrations. The specific binding of the radioactive ligand to the receptor was defined as the difference between total binding and nonspecific binding, determined in the presence of excess unlabeled ligand.

Malassezia pachydermatis = test: Antimicrobial test, Malassezia study; type: cell-based; conditions: after 24 hours
Procedure: The test article (norketotifen) was weighed and diluted into PBS to final concentrations of 0.210% and 0.035% before use. A 5 mL volume of the Test Article was aliquoted to a sterile 15 mL tube and the Malassezia sp (for example M. pachydermatis) were added at target concentrations of approx. 1.0×10^6 CFU/mL. The resulting mixture was vortexed thoroughly and incubated at room temperature for 7 days. A 0.500 mL aliquot of control and test tubes were harvested in 9.5 mL of D/E broth and any surviving test microorganisms were enumerated per standard dilution and plating techniques. Reductions were compared to a PBS Control at Time Zero and replicate tests were performed.

croton oil-treated ears [5] = test: Modified croton oil ear inflammation, topical cream; type: in vivo; conditions: mice, 1.0% cream topical
Procedure: In order to investigate the effects of topical administration of the test compounds in dermal inflammation, a modified croton oil model was used. […] The cream was then removed and a solution of 1% croton oil in 20 μl acetone was applied to both ears. […] Cream was wiped from the ears and ears were removed and weighed. […] All results represent mean ear weights (±S.E.M.) from 8 ears.

[6] = Solubility of norketotifen in non-aqueous solvents; type: physicochemical
Procedure: The hydrophobic ointment was prepared by dissolving norketotifen in propylene glycol. […] Next, glyceryl stearate, cetyl alcohol, and white petrolatum were added to a suitable container and heated to 65-70° C. This heating step melts the surfactants and the petrolatum. Next, norketotifen solution was slowly added and the composition mixed until the solvent was dispersed. Finally, the composition was cooled with mixing to allow the ointment to thicken.

Staphylococcus aureus = test: Antimicrobial test, plate count; type: cell-based; conditions: 0.035% norketotifen, within 7 days, from 750,000
Procedure: (§1) Studies were performed to evaluate possible antimicrobial activities of norketotifen at various concentrations and various pHs. […]. The standard microbial solutions of norketotifen contained the following excipients: Sodium citrate (0.3%), propylene glycol (1.75%), methylparaben (0.03%), propylparaben (0.01%), sterile water (as diluent).
(§2) The microorganisms were inoculated into 50 mL centrifuge tubes containing 10 mL of test sample at T=0. One (1) mL was aliquoted from each centrifuge tube for each of the following 4 weeks (except at 21 days). The log reduction was determined by the plate count method after 7, 14 and 28 days by diluting in DEB (D/E neutralizing Broth) from 10^−1 to 10^−4 for bacteria. Bacterial plates were poured with SCDA (Soybean Casein Digest Agar) and incubated at 32.5±2.5° C. for 3-5 days

Candida albicans = test: Antimicrobial test, plate count; type: cell-based; conditions: 0.035% norketotifen, within 7 days, from 500,000
Procedure: as §1, §2

[7] = oral 10 mg/kg, versus vehicle baseline

Structure (SMILES): CC(C)(C)c1ccc(C(O)CCCN2CCC(C(O)(c3ccccc3)c3ccccc3)CC2)cc1 (centres unmarked) [TERFENADINE]
- Sedated animals (mice; oral dose 150 mg/kg): 0/10

Structure (SMILES): CN(C)CCOC(c1ccccc1)c1ccccc1 [DIPHENHYDRAMINE]
- Sedated animals (mice; oral dose 50 mg/kg): 5/10
- Sedated animals (mice; oral dose 100 mg/kg): 8/10
- inhibition at 10 mg/kg [1, 7]: 31%

Structure (SMILES): Clc1ccc2c(c1)CCc1cccnc1C2=C1CCNCC1 [DESLORATADINE]
- Sedated animals (mice; oral dose 150 mg/kg): 0/10

Structure (SMILES): COc1ccc(CN(CCN(C)C)c2ccccn2)cc1 [PYRILAMINE]
- Sedated animals (mice; oral dose 100 mg/kg): 8/10

Structure (SMILES): CN1CCC(=C2c3ccccc3CC(=O)c3sccc32)CC1 [Ketotifen, 4-(1-methyl-4-piperidyline)-4H-benzo(4,5)-cyclohepta-(1,2-b) thiophene-10-one, reference compound]
- Average Ear weight ±SEM (croton oil-treated ears [2]; 90 min): 37 ± 1 mg
- Average Ear weight ±SEM (croton oil-treated ears [2]; 120 min): 42 ± 1 mg
- Sedated animals (mice; oral dose 25 mg/kg): 5/10
- Sedated animals (mice; oral dose 50 mg/kg): 8/10
- Sedated animals (mice; oral dose 100 mg/kg): 10/10
- Acute toxicity (estimated LD50) (rats; intravenous): 5 to 10 mg/kg
- Acute toxicity (estimated LD50) (rats; oral): <300 mg/kg
- Frequency of sedation (dogs; DAY 1): 0/6
- Frequency of sedation (dogs; DAY 2): 5/6
- Frequency of sedation (dogs; DAY 3): 5/6
- Sedation in dogs (in words) (dogs): causes sedation in dogs
- IC50 [3]: 91 µM

Structure (SMILES): OCCOCCN1CCN(C(c2ccccc2)c2ccc(Cl)cc2)CC1 (centres unmarked) [HYDROXYZINE]
- Sedated animals (mice; oral dose 100 mg/kg): 9/10

Structure (SMILES): O=C1Cc2ccccc2C(=C2CCNCC2)c2ccsc21 (racemic) [Norketotifen, (RS)-4-(piperidylidene)-9,10-dihydro-4H-benzo-(4,5)-cyclohepta-(1,2-b) thiophene-10-one]
- Average Ear weight ±SEM (croton oil-treated ears [2]; 90 min): 34 ± 1 mg
- Average Ear weight ±SEM (croton oil-treated ears [2]; 120 min): 40 ± 1 mg
- Sedated animals (mice; oral dose 83 mg/kg): 3/10
- Sedated animals (mice; oral dose 100 mg/kg): 3/10
- Sedated animals (mice; oral dose 150 mg/kg): 3/10
- Sedated animals (mice; oral dose 180 mg/kg): 6/10
- Sedation in mice (in words) (mice; physostigmine lethality test): expressed sedative activity
- Histamine wheal area ([1]; oral 1.0 mg/kg): 114 ± 8 mm^2
- Saline wheal area ([1]; oral 1.0 mg/kg): 22 ± 1 mm^2
- Histamine effect ([1]; oral 1.0 mg/kg): 92 mm^2
- inhibition at 1 mg/kg ([1]; oral 1.0 mg/kg, versus vehicle baseline): 2%
- Histamine wheal area ([1]; oral 10 mg/kg): 39 ± 2 mm^2
- Saline wheal area ([1]; oral 10 mg/kg): 22 ± 1 mm^2
- Histamine effect ([1]; oral 10 mg/kg): 17 mm^2
- inhibition at 10 mg/kg [1, 7]: 82%
- Histamine wheal area ([1]; oral 50 mg/kg): 10 ± 1 mm^2
- Saline wheal area ([1]; oral 50 mg/kg): 12 ± 1 mm^2
- Histamine effect ([1]; oral 50 mg/kg): 0 mm^2
- inhibition at 50 mg/kg ([1]; oral 50 mg/kg, versus vehicle baseline): 100%
- Bouts as % of Vehicle Controls [4]: 42 ** %
- Bouts/40 min [4]: 61 ± 4
- Bouts as % of Vehicle Controls ([4]; listed as RS-norketotifen): 42%
- IC50 (histamine H1-receptors): 0.011 µM
- Acute toxicity (estimated LD50) (rats; intravenous): 10 to 15 mg/kg
- Acute toxicity (estimated LD50) (rats; oral): 1500 to 2000 mg/kg
- Reduction of Malassezia pachydermatis (Malassezia pachydermatis; 0.035% norketotifen): 99.8%
- Reduction of Malassezia pachydermatis (Malassezia pachydermatis; 0.2% norketotifen): 99.995%
- Average Ear Weight ±S.E.M (croton oil-treated ears [5]; 0 (predose) min after croton oil): 36 ± 1 mg
- Average Ear Weight ±S.E.M (croton oil-treated ears [5]; 30 min after croton oil): 36 ± 1 mg
- Average Ear Weight ±S.E.M (croton oil-treated ears [5]; 60 min after croton oil): 37 ± 2 mg
- Average Ear Weight ±S.E.M (croton oil-treated ears [5]; 90 min after croton oil): 36 ± 2 mg
- Frequency of sedation (dogs; DAY 1): 0/6
- Frequency of sedation (dogs; DAY 2): 0/6
- Frequency of sedation (dogs; DAY 3): 0/6
- Sedation in dogs (in words) (dogs): did not cause sedation in dogs
- IC50 [3]: 9.2 µM
- Times more potent than ketotifen as inhibitor of histamine release ([3]; pro-inflammatory cells): approximately 10 times
- Solubility ([6]; formulation G1009, mixture of two polyethylene glycols): about 1.0%
- Solubility ([6]; in propylene glycol): about 1.0%
- Staphylococcus aureus count after incubation (Staphylococcus aureus): 90,000
- Candida albicans count after incubation (Candida albicans): 500 cells

Structure (SMILES): CCOC(=O)N1CCC(=C2c3ccc(Cl)cc3CCc3cccnc32)CC1 [LORATADINE]
- Sedated animals (mice; oral dose 150 mg/kg): 1/10

Structure (SMILES): O=C1Cc2ccccc2C(=C2CCNCC2)c2ccsc21 [R-NORKETOTIFEN]
- Sedated animals (mice; oral dose 100 mg/kg, 100 mg/kg): 3/10
- Sedated animals (mice; oral dose 150 mg/kg, 150 mg/kg): 3/10

Structure (SMILES): O=C1Cc2ccccc2C(=C2CCNCC2)c2ccsc21 [S-NORKETOTIFEN]
- Sedated animals (mice; oral dose 100 mg/kg, 100 mg/kg): 0/10
- Sedated animals (mice; oral dose 150 mg/kg, 150 mg/kg): 0/10
